From patent publication US20150355163A1, “T-TYPE CALCIUM CHANNEL INHIBITORS FOR TREATMENT OF CANCER” (TAU THERAPEUTICS LLC, priority 2013, published 2015)
“Also recorded” adds a separate entry of the source. Like-named read-outs stand apart in the source and are kept apart here.

Columns and labels:
[1] = test system: T1, T-type Ca^2+ channel; conditions: cited from earlier work; for potency for inhibition of the T-type calcium channel: in words; for IC50: read-out: IC50 for inhibiting T-type Ca^2+ channel activity
T1 construct: other: cell membrane potential about −90 mV, in words; other: in words; selectivity for the −90 mV state relative to −40 mV; other: cell membrane potential about −30 mV to −60 mV

[2] = test system: cancer cells; test: Cancer cell proliferation; type: cell-based; conditions: in words
[3] = test system: T1, T-type Ca^2+ channel; test: Inhibition of T-type Ca^2+ channel activity in a cell with the membrane potential held (patch-clamp); type: cell-based; conditions: in words; for inhibition of T-type Ca^2+ channel activity: cell membrane potential about −90 mV
Description: This disclosure further provides methods of identifying compounds that inhibit T-type Ca^2+ channel activity in a cell when the cell membrane potential is about −90 mV. These methods include determining the ability of a compound to inhibit T-type Ca^2+ channel activity in a cell when the cell membrane potential is held at about −90 mV. The membrane potential can be held at about −90 mV by techniques known in the art, such as the patch-clamp technique. The ability of a compound to inhibit T-type Ca^2+ channel activity in a cell when the cell membrane potential is about −90 mV can be determined, for example, by determining the ability of the compound to prevent growth factor-stimulated calcium entry into the cell. Calcium entry into the cell can be determined by measuring increases in levels of intracellular calcium, such as by use of a calcium sensitive fluorescent dye.
This disclosure further provides methods of identifying compounds that inhibit T-type Ca^2+ channel activity in a cell when the cell membrane potential is about −90 mV. Such compounds can be identified by measuring inhibition of T-type Ca^2+ channel activity in a cell using standard electrophysiological methods such as patch clamp or by measuring the ability of a pharmaceutical agent to block calcium entry into a cell, such as a cancer cell, when that cell is stimulated by a mitogen, such as a growth factor. Such methods are disclosed, for example, in Densmore, et al., FEBS Lett. 312:161-164 (1992); Haverstick, et al., Mol. Biol. Cell 4:173-184 (1993); and Gomora et al., J. Pharmacol. Exp. Ther. 292:96-103 (2000), the contents of which are incorporated by reference. Calcium entry can be determined by methods such as intracellular entrapment of a Ca^2+ sensitive fluorescent dye.
In some embodiments, the cell membrane potential can be controlled using a patch-clamp technique. In some embodiments cell membrane potential can be controlled using any other technique described herein or known in the art.

[4] = molecular target: CYP 450 3A4 (Homo sapiens, UniProt P08684); conditions: in words; cited from earlier work
[5] = used by almost a million patients; cited from earlier work
[6] = test system: T-type Ca^2+ channel; conditions: ratio; cited from earlier work
[7] = test system: human glioblastoma; conditions: seven day course of mibefradil, then five day course of temozolomide; cited from earlier work

Sequence of CYP 450 3A4 (P08684 whole entry): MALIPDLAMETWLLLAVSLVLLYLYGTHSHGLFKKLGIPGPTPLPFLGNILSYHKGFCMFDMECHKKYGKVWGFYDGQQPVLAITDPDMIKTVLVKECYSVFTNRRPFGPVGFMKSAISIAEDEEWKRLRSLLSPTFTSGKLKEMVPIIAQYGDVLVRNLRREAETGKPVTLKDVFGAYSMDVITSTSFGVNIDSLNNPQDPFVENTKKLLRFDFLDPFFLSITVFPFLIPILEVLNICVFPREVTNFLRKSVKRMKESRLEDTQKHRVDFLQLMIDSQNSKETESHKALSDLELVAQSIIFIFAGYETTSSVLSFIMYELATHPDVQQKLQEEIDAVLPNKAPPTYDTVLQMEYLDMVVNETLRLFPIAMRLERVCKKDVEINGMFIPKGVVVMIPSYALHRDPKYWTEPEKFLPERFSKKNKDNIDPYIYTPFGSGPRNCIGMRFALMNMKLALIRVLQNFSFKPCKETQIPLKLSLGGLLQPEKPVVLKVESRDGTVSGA

Compound	potency for inhibition of the T-type calcium channel [1]	anti-proliferative activity [2]	selectivity for the −90 mV state relative to −40 mV [3]	inhibition of T-type Ca^2+ channel activity [3]	other results
CC(C)c1ccc(CC(=O)N[C@H](C)c2ccc(OCC(F)(F)F)cn2)cc1 [MK-8998]	high potency	without anti-proliferative activity; also recorded: little or no effect	decreased selectivity		
COc1ccc(CCN2CCC[C@H]2COC(c2ccccc2)c2ccc(Cl)cc2)cc1 (stereo partly drawn) [TH-1177]				inhibit	
C[C@@H](NC(=O)Cc1ccc(C2CC2)cc1)c1ccc(OCC(F)(F)F)cn1 [TTA-A2]	high potency	without anti-proliferative activity; also recorded: little or no effect	decreased selectivity		
O=c1[nH]c2cc(Cl)ccc2n1C1CCN(CCCC(c2ccc(F)cc2)c2ccc(F)cc2)CC1 [chlopimozide]		anti-proliferative			
COCC(=O)O[C@]1(CCN(C)CCCc2nc3ccccc3[nH]2)CCc2cc(F)ccc2[C@@H]1C(C)C [mibefradil]		inhibit cancer cell proliferation	preferentially blocks the −90 mV state	inhibit	inhibition of CYP 450 3A4 [4]: inhibition; tolerability [5]: remarkably well tolerated; preference for blocking channels at about −30 mV to −60 mV over −90 mV [6]: 10 to 1; IC50 ([1]; cell membrane potential about −30 mV to −60 mV): ≥ 0.1 µM; IC50 ([1]; cell membrane potential of −80 mV to −90 mV): ~1 µM; anti-proliferative activity ([2]; listed as Mibefradil): antiproliferative; effect on the cytotoxic effect of temozolomide [7]: significantly increased; also recorded: restored the sensitivity to temozolomide
